From patent publication US20210070748A1, “INHIBITORS OF BRUTONS TYROSINE KINASE” (Pharmacyclics LLC, priority 2015, published 2021)

Experiments:
BTK-WT = biological target: T1, BTK-WT (Homo sapiens, UniProt Q06187); assay: Btk in vitro inhibitory activity (one of Method A TR-FRET, Method B electrophoretic mobility shift, Method C radiometric filter binding); assay type: biochemical; settings: D-compounds panel data; read-out: IC50 BTK-WT
T1 construct: purified from insect cells as a full-length construct containing an N-terminal 6X-His tag; His6 (N); made in house; host or cells: insect cells (baculovirus Sf21 in Method B)
T1 sequence (Q06187 whole entry): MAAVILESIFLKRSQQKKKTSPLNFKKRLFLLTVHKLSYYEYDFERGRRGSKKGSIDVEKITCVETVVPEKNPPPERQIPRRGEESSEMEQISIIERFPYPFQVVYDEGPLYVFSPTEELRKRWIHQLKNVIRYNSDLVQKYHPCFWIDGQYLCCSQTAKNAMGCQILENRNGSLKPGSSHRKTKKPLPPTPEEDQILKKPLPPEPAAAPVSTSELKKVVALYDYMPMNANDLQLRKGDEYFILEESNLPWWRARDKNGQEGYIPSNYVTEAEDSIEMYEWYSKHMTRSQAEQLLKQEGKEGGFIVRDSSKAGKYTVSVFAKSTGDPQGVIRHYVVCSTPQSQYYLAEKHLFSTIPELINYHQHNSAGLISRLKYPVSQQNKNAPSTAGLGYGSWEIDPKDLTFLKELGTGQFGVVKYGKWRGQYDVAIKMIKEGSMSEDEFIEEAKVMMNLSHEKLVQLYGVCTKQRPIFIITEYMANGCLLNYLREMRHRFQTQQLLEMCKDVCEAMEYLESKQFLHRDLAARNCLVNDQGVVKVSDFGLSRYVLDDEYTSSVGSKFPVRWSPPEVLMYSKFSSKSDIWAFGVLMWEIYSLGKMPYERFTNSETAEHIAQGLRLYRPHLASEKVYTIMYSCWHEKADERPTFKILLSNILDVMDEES

EGFR = EGFR (Homo sapiens, UniProt P00533); assay: Inhibition of a panel of kinases, in vitro HotSpot kinase assay: EGFR; assay type: biochemical; settings: D-compounds panel data; 1 μM ATP
EGFR, sequence (P00533 25-1210): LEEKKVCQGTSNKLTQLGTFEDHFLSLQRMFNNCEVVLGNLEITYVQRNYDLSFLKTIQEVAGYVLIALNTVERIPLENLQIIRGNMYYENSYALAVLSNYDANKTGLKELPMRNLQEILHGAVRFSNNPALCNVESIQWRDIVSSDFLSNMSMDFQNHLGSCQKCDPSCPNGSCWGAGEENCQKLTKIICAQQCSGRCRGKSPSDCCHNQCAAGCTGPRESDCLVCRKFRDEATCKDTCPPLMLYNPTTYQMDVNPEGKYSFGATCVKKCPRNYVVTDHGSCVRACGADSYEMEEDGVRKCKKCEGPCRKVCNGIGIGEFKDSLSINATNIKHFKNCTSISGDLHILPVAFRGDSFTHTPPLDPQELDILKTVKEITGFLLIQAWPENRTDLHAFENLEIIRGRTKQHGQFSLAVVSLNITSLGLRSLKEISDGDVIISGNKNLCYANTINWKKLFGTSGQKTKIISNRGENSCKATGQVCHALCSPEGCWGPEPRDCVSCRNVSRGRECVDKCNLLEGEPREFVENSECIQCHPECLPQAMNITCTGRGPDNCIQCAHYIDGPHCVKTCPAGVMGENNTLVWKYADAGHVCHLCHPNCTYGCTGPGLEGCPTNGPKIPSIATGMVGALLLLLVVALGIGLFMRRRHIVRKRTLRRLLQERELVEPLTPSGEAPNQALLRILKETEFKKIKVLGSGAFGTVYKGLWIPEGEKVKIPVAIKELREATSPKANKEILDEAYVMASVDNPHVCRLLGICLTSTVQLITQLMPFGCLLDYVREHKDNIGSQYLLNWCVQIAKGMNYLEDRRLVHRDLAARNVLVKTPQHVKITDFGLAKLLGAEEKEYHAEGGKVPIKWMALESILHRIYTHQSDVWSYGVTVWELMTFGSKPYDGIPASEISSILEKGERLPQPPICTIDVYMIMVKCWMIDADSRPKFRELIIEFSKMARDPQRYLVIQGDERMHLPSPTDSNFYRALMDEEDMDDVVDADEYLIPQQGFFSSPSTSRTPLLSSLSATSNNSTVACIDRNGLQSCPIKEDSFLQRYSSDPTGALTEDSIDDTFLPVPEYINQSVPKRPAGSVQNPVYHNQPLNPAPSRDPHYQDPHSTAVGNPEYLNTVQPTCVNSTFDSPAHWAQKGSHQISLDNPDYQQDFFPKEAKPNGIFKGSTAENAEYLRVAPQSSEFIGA
Procedure: The degree of inhibition of a panel of kinases is determined using the in vitro HotSpot kinase assay (purified enzymes, ^33P-ATP, an appropriate substrate and 1 μM ATP).

Row | IC50 (BTK-WT) | IC50 (EGFR) | SMILES
1 | ≤ 10 nM | 100 to 1000 nM | C[C@@H]1[C@H](NC(=O)c2ccc(C3CC3)cc2)CCCN1c1cnc(C(N)=O)c(Nc2ccc(OC3CCN(C4CCCC4)CC3)cc2)n1 [Example D-101, 3-({4-[(1-cyclopentylpiperidin-4-yl)oxy]phenyl}amino)-5-[(2R,3R)-3-(4-cyclopropylbenzamido)-2-methylpiperidin-1-yl]pyrazine-2-carboxamide]
2 | ≤ 10 nM | 100 to 1000 nM | C[C@@H]1[C@H](NC(=O)c2ccc(C3CC3)cc2F)CCCN1c1cnc(C(N)=O)c(Nc2ccc(CN3CCN(C)CC3)cc2)n1 [Example D-113, 5-[(2R,3R)-3-(4-cyclopropyl-2-fluorobenzamido)-2-methylpiperidin-1-yl]-3-({4-[(4-methylpiperazin-1-yl)methyl]phenyl}amino)pyrazine-2-carboxamide]
3 | ≤ 10 nM | 100 to 1000 nM | C[C@@H]1[C@H](n2ccc3cc(C4CC4)ccc3c2=O)CCCN1c1cnc(C(N)=O)c(Nc2ccc(N3CCN(C)CC3)cc2)n1 [Example D-6, 5-[(2R,3R)-3-(6-cyclopropyl-1-oxo-1,2-dihydroisoquinolin-2-yl)-2-methylpiperidin-1-yl]-3-{[4-(4-methylpiperazin-1-yl)phenyl]amino}pyrazine-2-carboxamide]
4 | ≤ 10 nM | 1000 to 10000 nM | CN1CCC(n2cc(Nc3nc(N4CCC[C@@H](n5ccc6cc(C7CC7)ccc6c5=O)C4)cnc3C(N)=O)cn2)CC1 [Example D-141, 5-[(3R)-3-(6-cyclopropyl-1-oxo-1,2-dihydroisoquinolin-2-yl)piperidin-1-yl]-3-{[1-(1-methylpiperidin-4-yl)-1H-pyrazol-4-yl]amino}pyrazine-2-carboxamide]
5 | ≤ 10 nM | 1000 to 10000 nM | C[C@@H]1[C@H](NC(=O)c2ccc(C3CC3)cc2F)CCCN1c1cnc(C(N)=O)c(Nc2ccc(S(=O)(=O)N3CCN(C)CC3)cc2)n1 [Example D-130, 5-[(2R,3R)-3-(4-cyclopropyl-2-fluorobenzamido)-2-methylpiperidin-1-yl]-3-({4-[(4-methylpiperazin-1-yl)sulfonyl]phenyl}amino)pyrazine-2-carboxamide]
6 | ≤ 10 nM | > 10000 nM | CN1CCN(c2ccc(Nc3nc(N4CCC[C@@H](n5ccc6cc(C7CC7)ccc6c5=O)C4)cnc3C(N)=O)cc2)CC1 [Example D-165, 5-[(3R)-3-(6-cyclopropyl-1-oxo-1,2-dihydroisoquinolin-2-yl)piperidin-1-yl]-3-{[4-(4-methylpiperazin-1-yl)phenyl]amino}pyrazine-2-carboxamide]
7 | ≤ 10 nM | 1000 to 10000 nM | CNC(=O)N[C@@H]1CCCN(c2cnc(C(N)=O)c(Nc3cnn(C)c3)n2)[C@@H]1C [Example D-109, 3-[(1-methyl-1H-pyrazol-4-yl)amino]-5-[(2R,3R)-2-methyl-3-[(methylcarbamoyl)amino]piperidin-1-yl]pyrazine-2-carboxamide]
8 | ≤ 10 nM | > 10000 nM | Cc1cc(Nc2nc(N3CCC[C@@H](n4ccc5cc(C6CC6)ccc5c4=O)C3)cnc2C(N)=O)sn1 [Example D-166, 5-[(3R)-3-(6-cyclopropyl-1-oxo-1,2-dihydroisoquinolin-2-yl)piperidin-1-yl]-3-[(3-methyl-1,2-thiazol-5-yl)amino]pyrazine-2-carboxamide]
9 | ≤ 10 nM | 1000 to 10000 nM | C[C@@H]1[C@H](NC(=O)c2ccc(C3CC3)cc2)CCCN1c1cnc(C(N)=O)c(Nc2cnn(C)c2)n1 [Example D-135, 5-[(2R,3R)-3-(4-cyclopropylbenzamido)-2-methylpiperidin-1-yl]-3-[(1-methyl-1H-pyrazol-4-yl)amino]pyrazine-2-carboxamide]
10 | ≤ 10 nM | 1000 to 10000 nM | C[C@@H]1[C@H](NC(=O)c2ccc(C3CC3)cc2)CCCN1c1cnc(C(N)=O)c(Nc2ccc(N3CCC(C(C)(C)O)CC3)cc2)n1 [Example D-100, 5-[(2R,3R)-3-(4-cyclopropylbenzamido)-2-methylpiperidin-1-yl]-3-({4-[4-(2-hydroxypropan-2-yl)piperidin-1-yl]phenyl}amino)pyrazine-2-carboxamide]
11 | 100 to 1000 nM | > 10000 nM | C[C@@H]1[C@H](NC(=O)N(C)C)CCCN1c1cnc(C(N)=O)c(Nc2ccc(CN3CCN(C)CC3)cc2)c1 [Example D-120, 5-[(2R,3R)-3-[(dimethylcarbamoyl)amino]-2-methylpiperidin-1-yl]-3-({4-[(4-methylpiperazin-1-yl)methyl]phenyl}amino)pyridine-2-carboxamide]
12 | 10 to 100 nM | > 10000 nM | C[C@@H]1[C@H](NC(=O)c2ccc(C3CC3)cc2F)CCCN1c1cnc(C(N)=O)c(Nc2ccc(N3CCN(C)CC3)cn2)n1 [Example D-8, 5-[(2R,3R)-3-(4-cyclopropyl-2-fluorobenzamido)-2-methylpiperidin-1-yl]-3-{[5-(4-methylpiperazin-1-yl)pyridin-2-yl]amino}pyrazine-2-carboxamide]
13 | 10 to 100 nM | 1000 to 10000 nM | C[C@@H]1CC[C@H](NC(=O)c2ccc(C3CC3)cc2)CN1c1cnc(C(N)=O)c(Nc2cnn(C)c2)n1 [Example D-145, 5-[(2R,5S)-5-(4-cyclopropylbenzamido)-2-methylpiperidin-1-yl]-3-[(1-methyl-1H-pyrazol-4-yl)amino]pyrazine-2-carboxamide]
14 | ≤ 10 nM | 1000 to 10000 nM | C[C@@H]1[C@H](NC(=O)c2ccc(C3CC3)cc2F)CCCN1c1cnc(C(N)=O)c(Nc2ccc(S(=O)(=O)N3CCCC3)cc2)n1 [Example D-139, 5-[(2R,3R)-3-(4-cyclopropyl-2-fluorobenzamido)-2-methylpiperidin-1-yl]-3-{[4-(pyrrolidine-1-sulfonyl)phenyl]amino}pyrazine-2-carboxamide]
15 | 10 to 100 nM | > 10000 nM | C[C@@H]1[C@H](NC(=O)c2ccc(C3CC3)cc2)CCCN1c1cnc(C(N)=O)c(Nc2ccc(N3CCN(CC(F)(F)F)CC3)cc2)n1 [Example D-97, 5-[(2R,3R)-3-(4-cyclopropylbenzamido)-2-methylpiperidin-1-yl]-3-({4-[4-(2,2,2-trifluoroethyl)piperazin-1-yl]phenyl}amino)pyrazine-2-carboxamide]
16 | ≤ 10 nM | 1000 to 10000 nM | COC(C)(C)c1ccc(C(=O)N[C@@H]2CCCN(c3cnc(C(N)=O)c(Nc4cnn(C)c4)n3)[C@@H]2C)cc1 [Example D-161, 5-[(2R,3R)-3-[4-(2-methoxypropan-2-yl)benzamido]-2-methylpiperidin-1-yl]-3-[(1-methyl-1H-pyrazol-4-yl)amino]pyrazine-2-carboxamide]
17 | ≤ 10 nM | > 10000 nM | C[C@H]1CC[C@@H](NC(=O)c2ccc(C3CC3)cc2)CN1c1cnc(C(N)=O)c(Nc2ccc(N3CCN(C)CC3)cc2)n1 [Example D-154, 5-[(2S,5R)-5-(4-cyclopropylbenzamido)-2-methylpiperidin-1-yl]-3-{[4-(4-methylpiperazin-1-yl)phenyl]amino}pyrazine-2-carboxamide]
18 | 10 to 100 nM | > 10000 nM | C[C@@H]1[C@H](NC(=O)c2ccc(C3CC3)cc2)CCCN1c1cnc(C(N)=O)c(Nc2ccc(N3CCC(F)(F)CC3)cc2)n1 [Example D-96, 5-[(2R,3R)-3-(4-cyclopropylbenzamido)-2-methylpiperidin-1-yl]-3-{[4-(4,4-difluoropiperidin-1-yl)phenyl]amino}pyrazine-2-carboxamide]
19 | 10 to 100 nM | 1000 to 10000 nM | C[C@H]1CC[C@@H](NC(=O)N(C)C)CN1c1cnc(C(N)=O)c(Nc2cnn(C)c2)n1 [Example D-152, 5-[(2S,5R)-5-[(dimethylcarbamoyl)amino]-2-methylpiperidin-1-yl]-3-[(1-methyl-1H-pyrazol-4-yl)amino]pyrazine-2-carboxamide]
20 | ≤ 10 nM | 100 to 1000 nM | C[C@@H]1[C@H](NC(=O)c2ccc(C3CC3)cc2)CCCN1c1cnc(C(N)=O)c(Nc2ccc(OC3CCCN(C)C3)cc2)n1 (stereo partly drawn) [Example D-105, 5-[(2R,3R)-3-(4-cyclopropylbenzamido)-2-methylpiperidin-1-yl]-3-({4-[(1-methylpiperidin-3-yl)oxy]phenyl}amino)pyrazine-2-carboxamide]
21 | ≤ 10 nM | 100 to 1000 nM | CC(C)N1CCN(c2ccc(Nc3nc(N4CCC[C@@H](NC(=O)c5ccc(C6CC6)cc5F)[C@H]4C)cnc3C(N)=O)cc2)CC1 [Example D-7, 5-[(2R,3R)-3-(4-cyclopropyl-2-fluorobenzamido)-2-methylpiperidin-1-yl]-3-({4-[4-(propan-2-yl)piperazin-1-yl]phenyl}amino)pyrazine-2-carboxamide]
22 | ≤ 10 nM | 100 to 1000 nM | C[C@@H]1[C@H](NC(=O)N(C)C)CCCN1c1cnc(C(N)=O)c(Nc2cc(C3CCOCC3)ns2)n1 [Example D-162, 5-[(2R,3R)-3-[(dimethylcarbamoyl)amino]-2-methylpiperidin-1-yl]-3-{[3-(oxan-4-yl)-1,2-thiazol-5-yl]amino}pyrazine-2-carboxamide]

Row | SMILES | IC50 (BTK-WT) | IC50 (EGFR)
23 | C[C@@H]1[C@H](NC(=O)c2ccc(C3CC3)cc2)CCCN1c1cnc(C(N)=O)c(Nc2ccc(OC3C[C@H]4CC[C@@H](C3)N4C)cc2)n1 (stereo partly drawn) [Example D-106, 5-[(2R,3R)-3-(4-cyclopropylbenzamido)-2-methylpiperidin-1-yl]-3-[(4-{[(1R,5S)-8-methyl-8-azabicyclo[3.2.1]octan-3-yl]oxy}phenyl)amino]pyrazine-2-carboxamide] | ≤ 10 nM | 100 to 1000 nM
24 | C[C@@H]1[C@H](NC(=O)c2ccc(C3CC3)cc2)CCCN1c1cnc(C(N)=O)c(Nc2ccc(OC3C[C@H]4CC[C@@H](C3)N4C)cc2)n1 (stereo partly drawn) [Example D-104, 5-[(2R,3R)-3-(4-cyclopropylbenzamido)-2-methylpiperidin-1-yl]-3-[(4-{[(1R,5S)-8-methyl-8-azabicyclo[3.2.1]octan-3-yl]oxy}phenyl)amino]pyrazine-2-carboxamide] | ≤ 10 nM | 100 to 1000 nM
